Results on one substance are retold here after PMC7287882, “Dual miRNases for Triple Incision of miRNA Target: Design Concept and Catalytic Performance” (Molecules, 2020).

Data set [1] has as its system miR-18a. As to the kind of experiment: Gel-retardation assay, hybridization with miR-18a. The data set is classed as binding. The following applies: 37 °C, 45 min, mean of 3. An excerpt: We carried out a comparative analysis of the hybridization properties of the developed DCs with the corresponding SCs, which were the products of the first stage of the DCs synthesis. As discussed above, each SC consisted of the corresponding oligonucleotide A, which was complementary to the 5′-region of the matching miRNA target, and the catalytic peptide [LRLRG]2, attached to the 5′-end of this oligonucleotide via a thiohexyl linker (linker 2). […] Indeed, the level of binding of DCs to their miRNA targets reached 96, 90, 75, 55% at equimolar concentration (1 μM), and 99, 96, 92 and 69% at 5-fold excess of DCs over miR-17, miR-18a, miR-21 and miR-155, respectively (Figure 2). […]
The reaction mixture (4 µL) containing 50 mM Tris-HCl, pH 7.0, 200 mM KCl and 1 mM EDTA, 100 cpm (Cherenkov’s counting) of [^32P]-miRNA, 1 μM unlabeled miRNA, a conjugate at a concentration ranging from 0.1 to 10 μM was incubated at 37 °C for 45 min and quenched by adding of a loading buffer (20% ficoll, 0.025% bromophenol blue, 0.025% xylene cyanol). […] Formation of the complex miRNA/conjugate was analyzed by electrophoresis in 15% native PAAG at 4 °C. The gels were analyzed using Molecular Imager FX. The extent of binding of conjugate to miRNA was determined as a ratio of radioactivity measured in the complex to the total radioactivity applied onto the gel lane.

Data set [2] concerns miR-18a. As to the kind of experiment: Ribonuclease activity assay at different concentrations of MgCl2. The data set is classed as biochemical. The following applies: 50 mM Tris-HCl pH 7.0, 100 mM KCl, 1 mM DTT, 0.02 mg/mL BSA, 37 °C, 48 h; for Cleavage: miRNA 1 µM, DC 20 µM, mean ± s.e. Here is the method:
In order to understand the effect of Mg^2+ ions on the efficiency and specificity of miRNA cleavage by DCs, miR-18a was incubated with the matching DC in the buffer containing 50 mM Tris-HCl, pH 7.0, 100 mM KCl, 1 mM DTT, 0.02 mg/mL BSA, but with different Mg^2+ concentration varied from 0 to 15 mM.
Reaction with different concentration of MgCl2 was performed in reaction mixtures (8 µL) containing 320 cpm (Cherenkov’s counting) of [^32P]-miR-18a, 1 μM unlabeled miRNA, 20 µM of miR-18a-DC in buffers contained 100 mM KCl, 50 mM Tris-HCl pH 7.0, 1mM DTT, 0.02 mg/mL BSA and MgCl2 at concentration 0, 2, 4, 8 or 15 mM at 37 °C for 48 h. RNA cleavage products were collected and analyzed as described above.

Consider “TATCTGC–linker 1–[GRLRL]2–linker 2–ATGCACCTTA [miRNA-18a-DC, Dual oligonucleotide-peptide conjugate targeted to miR-18a: catalytic peptide [LRLRG]2 between two 2-aminoadenine-containing oligodeoxyribonucleotides]”, for which the “level of binding of DC to miRNA target” value in the data set with miR-18a [1] (5-fold excess of DC over miRNA (1 µM), same buffer) is recorded as 96%; in the data set on miR-18a [1] (equimolar, DC 1 µM : miRNA 1 µM, 50 mM Tris-HCl pH 7.0, 200 mM KCl, 1 mM EDTA) it was 90%. The Cleavage turned out to be 26.4±4.0% in the data set on miR-18a [2] (Mg2+ 0 mM); 28.8±3.9% in the data set with miR-18a [2] (Mg2+ 2 mM); 24.3±2.7% with miR-18a [2] (Mg2+ 4 mM); 23.1±3.1% with miR-18a [2] (Mg2+ 8 mM); 27.2±4.3% with miR-18a [2] (Mg2+ 15 mM). In addition, the “ribonuclease activity of DC (cleavage), unaffected by addition of Mg2+” value with miR-18a [2] (Mg2+ varied from 0 to 15 mM) was “approximately 26%”.
